Measured values from PubChem BioAssay (NCI).
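Results reflect a 48-hour exposure of cells in 96-well plates to compound at five concentrations. TGI: total growth inhibition.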

Experiments:
Assay in all cases: NCI anticancer screen, dose series, 48 h
OVCAR-5 ovarian = system: OVCAR-5 ovarian
PC-3 prostate = system: PC-3 prostate
OVCAR-3 ovarian = system: OVCAR-3 ovarian
HCT-15 colon = system: HCT-15 colon
MALME-3M melanoma = system: MALME-3M melanoma
NCI/ADR-RES ovarian = system: NCI/ADR-RES ovarian
NCI-H226 lung = system: NCI-H226 lung
NCI-H23 lung = system: NCI-H23 lung
SNB-19 CNS = system: SNB-19 CNS
HCT-116 colon = system: HCT-116 colon
MDA-MB-231 breast = system: MDA-MB-231 breast
HOP-62 NSCLC = system: HOP-62 NSCLC
COLO 205 colon = system: COLO 205 colon
T-47D breast = system: T-47D breast
K-562 leukemia = system: K-562 leukemia
CAKI-1 renal = system: CAKI-1 renal
SF-295 CNS = system: SF-295 CNS
SNB-75 CNS = system: SNB-75 CNS
SF-268 CNS = system: SF-268 CNS
SW-620 colon = system: SW-620 colon
UACC-257 melanoma = system: UACC-257 melanoma
RXF 393 renal = system: RXF 393 renal
OVCAR-8 ovarian = system: OVCAR-8 ovarian
MDA-MB-435 = system: MDA-MB-435
BT-549 breast = system: BT-549 breast
UACC-62 melanoma = system: UACC-62 melanoma
HCC-2998 colon = system: HCC-2998 colon
DU-145 prostate = system: DU-145 prostate
SK-MEL-28 melanoma = system: SK-MEL-28 melanoma
SK-MEL-2 melanoma = system: SK-MEL-2 melanoma
CCRF-CEM leukemia = system: CCRF-CEM leukemia
NCI-H522 lung = system: NCI-H522 lung
ACHN renal = system: ACHN renal
NCI-H460 lung = system: NCI-H460 lung
IGROV1 ovarian = system: IGROV1 ovarian
LOX IMVI melanoma = system: LOX IMVI melanoma
EKVX NSCLC = system: EKVX NSCLC
M14 melanoma = system: M14 melanoma
A498 renal = system: A498 renal
TK-10 renal = system: TK-10 renal
A549 NSCLC = system: A549 NSCLC
786-0 renal = system: 786-0 renal
SK-OV-3 ovarian = system: SK-OV-3 ovarian
KM12 colon = system: KM12 colon
UO-31 renal = system: UO-31 renal
RPMI-8226 leukemia = system: RPMI-8226 leukemia
U251 CNS = system: U251 CNS
SR leukemia = system: SR leukemia
HL-60(TB) leukemia = system: HL-60(TB) leukemia
HS 578T breast = system: HS 578T breast
HT29 colon = system: HT29 colon
HOP-92 NSCLC = system: HOP-92 NSCLC
OVCAR-4 ovarian = system: OVCAR-4 ovarian
MOLT-4 leukemia = system: MOLT-4 leukemia
SK-MEL-5 melanoma = system: SK-MEL-5 melanoma
MCF7 breast = system: MCF7 breast
SF-539 CNS = system: SF-539 CNS

## COC(=O)[C@](NC(=O)OCc1ccccc1)([C@@H](C)S(=O)c1ccc(C)cc1)C(F)(F)F (some centres not stated)
OVCAR-5 ovarian
  TGI: > 100 µM
PC-3 prostate
  TGI: > 100 µM
OVCAR-3 ovarian
  TGI: > 100 µM
HCT-15 colon
  TGI: > 100 µM
MALME-3M melanoma
  TGI: > 100 µM
NCI/ADR-RES ovarian
  TGI: > 100 µM
NCI-H226 lung
  TGI: > 100 µM
NCI-H23 lung
  TGI: 95.1 µM
SNB-19 CNS
  TGI: > 100 µM
HCT-116 colon
  TGI: > 100 µM
MDA-MB-231 breast
  TGI: > 100 µM
HOP-62 NSCLC
  TGI: > 100 µM
COLO 205 colon
  TGI: 64.7 µM
T-47D breast
  TGI: > 100 µM
K-562 leukemia
  TGI: > 100 µM
CAKI-1 renal
  TGI: > 100 µM
SF-295 CNS
  TGI: > 100 µM
SNB-75 CNS
  TGI: > 100 µM
SF-268 CNS
  TGI: > 100 µM
SW-620 colon
  TGI: > 100 µM
UACC-257 melanoma
  TGI: 86.6 µM
RXF 393 renal
  TGI: 65.8 µM
OVCAR-8 ovarian
  TGI: > 100 µM
MDA-MB-435
  TGI: > 100 µM
BT-549 breast
  TGI: 88.8 µM
UACC-62 melanoma
  TGI: > 100 µM
HCC-2998 colon
  TGI: > 100 µM
DU-145 prostate
  TGI: > 100 µM
SK-MEL-28 melanoma
  TGI: > 100 µM
SK-MEL-2 melanoma
  TGI: 48.9 µM
CCRF-CEM leukemia
  TGI: 92 µM
NCI-H522 lung
  TGI: > 100 µM
ACHN renal
  TGI: > 100 µM
NCI-H460 lung
  TGI: > 100 µM
IGROV1 ovarian
  TGI: > 100 µM
LOX IMVI melanoma
  TGI: > 100 µM
EKVX NSCLC
  TGI: > 100 µM
M14 melanoma
  TGI: > 100 µM
A498 renal
  TGI: 95.8 µM
TK-10 renal
  TGI: 70 µM
A549 NSCLC
  TGI: > 100 µM
786-0 renal
  TGI: > 100 µM
SK-OV-3 ovarian
  TGI: > 100 µM
KM12 colon
  TGI: > 100 µM
UO-31 renal
  TGI: 95.9 µM
RPMI-8226 leukemia
  TGI: > 100 µM
U251 CNS
  TGI: > 100 µM
SR leukemia
  TGI: 61.5 µM
HL-60(TB) leukemia
  TGI: 38.9 µM
HS 578T breast
  TGI: > 100 µM
HT29 colon
  TGI: 67 µM
HOP-92 NSCLC
  TGI: 96.4 µM
OVCAR-4 ovarian
  TGI: 89.2 µM
MOLT-4 leukemia
  TGI: 70 µM
SK-MEL-5 melanoma
  TGI: 33.1 µM

## COc1ccc(C23OCC(Cc4cc(OC)c(OC)cc42)C3COC(C)=O)cc1OC (configuration not stated)
OVCAR-5 ovarian
  TGI: > 100 µM
PC-3 prostate
  TGI: > 100 µM
OVCAR-3 ovarian
  TGI: > 100 µM
HCT-15 colon
  TGI: > 100 µM
MCF7 breast
  TGI: > 100 µM
MALME-3M melanoma
  TGI: > 100 µM
NCI/ADR-RES ovarian
  TGI: > 100 µM
NCI-H226 lung
  TGI: > 100 µM
NCI-H23 lung
  TGI: > 100 µM
SNB-19 CNS
  TGI: > 100 µM
HCT-116 colon
  TGI: > 100 µM
MDA-MB-231 breast
  TGI: > 100 µM
HOP-62 NSCLC
  TGI: > 100 µM
COLO 205 colon
  TGI: > 100 µM
T-47D breast
  TGI: > 100 µM
K-562 leukemia
  TGI: > 100 µM
CAKI-1 renal
  TGI: > 100 µM
SF-295 CNS
  TGI: > 100 µM
SNB-75 CNS
  TGI: > 100 µM
SF-268 CNS
  TGI: > 100 µM
SW-620 colon
  TGI: > 100 µM
RXF 393 renal
  TGI: > 100 µM
MDA-MB-435
  TGI: > 100 µM
BT-549 breast
  TGI: > 100 µM
UACC-62 melanoma
  TGI: > 100 µM
HCC-2998 colon
  TGI: > 100 µM
DU-145 prostate
  TGI: > 100 µM
SK-MEL-28 melanoma
  TGI: > 100 µM
SK-MEL-2 melanoma
  TGI: > 100 µM
NCI-H522 lung
  TGI: > 100 µM
ACHN renal
  TGI: > 100 µM
NCI-H460 lung
  TGI: > 100 µM
LOX IMVI melanoma
  TGI: > 100 µM
EKVX NSCLC
  TGI: > 100 µM
M14 melanoma
  TGI: > 100 µM
A498 renal
  TGI: > 100 µM
TK-10 renal
  TGI: > 100 µM
A549 NSCLC
  TGI: > 100 µM
786-0 renal
  TGI: > 100 µM
SK-OV-3 ovarian
  TGI: > 100 µM
KM12 colon
  TGI: > 100 µM
UO-31 renal
  TGI: > 100 µM
RPMI-8226 leukemia
  TGI: > 100 µM
U251 CNS
  TGI: > 100 µM
SR leukemia
  TGI: > 100 µM
HL-60(TB) leukemia
  TGI: > 100 µM
SF-539 CNS
  TGI: > 100 µM
HT29 colon
  TGI: > 100 µM
HOP-92 NSCLC
  TGI: > 100 µM
OVCAR-4 ovarian
  TGI: > 100 µM
MOLT-4 leukemia
  TGI: > 100 µM
SK-MEL-5 melanoma
  TGI: > 100 µM
